Drawing on ChEMBL document CHEMBL1150887, “Isolation, identification, and antioxidant activity of three stilbene glucosides newly extracted from vitis vinifera cell cultures” (J Nat Prod, 1998), this text covers IC50 for ten compounds.

Some results are limits rather than exact numbers.

The nature of assay [1]: Antioxidant activity against cupric ion-induced lipid peroxidation in human LDL by TBA assay. It is filed as functional.
Assay [2] relates to Radical scavenging activity. Kind of assay: Antioxidant activity assessed as DPPH radical scavenging activity. It is filed as functional. (The DPPH test is a chemical assay of radical scavenging.)

Turning to `OC[C@H]1O[C@@H](Oc2cc(O)cc(/C=C/c3ccc(O)c(O)c3)c2)[C@H](O)[C@@H](O)[C@@H]1O`, the IC50 stood at 3 µM in assay [1] and 30.2 µM in assay [2].
On the same counts, the results for `Oc1ccc(/C=C\c2cc(O)cc(O)c2)cc1` [CIS-RESVERATROL] are 18 µM and 95 µM.
Turning to `OC[C@H]1O[C@@H](Oc2ccc(/C=C/c3cc(O)cc(O)c3)cc2O)[C@H](O)[C@@H](O)[C@@H]1O` [E-RESVERATROLOSIDE], the IC50 in assay [1] is 100 µM; in assay [2], 1000 µM.
On the same counts, the results for `Oc1cc(O)cc(/C=C/c2ccc(O)c(O)c2)c1` [PICEATANNOL] are 1.8 µM and 28 µM.
For `OC[C@H]1O[C@@H](Oc2cc(O)cc(/C=C/c3ccc(O)cc3)c2)[C@H](O)[C@@H](O)[C@@H]1O` [PICEID], the IC50 was found to be 19.1 µM in assay [1] and 198 µM in assay [2].
Consider `Oc1ccc(/C=C/c2cc(O)cc(O)c2)cc1` [RESVERATROL], for which the results for the IC50 in assay [1] and in assay [2] were 2.4 µM and 72 µM, respectively.
Consider `Cc1c(C)c2c(c(C)c1O)CCC(C)(C(=O)O)O2` (stereo not given) [TROLOX], for which the 50% inhibitory concentration (IC50) in assay [1] stood at 4.7 µM; in assay [2] it was 10.1 µM.
In the case of `OC[C@H]1O[C@@H](Oc2cc(O)cc(/C=C\c3ccc(O)c(O)c3)c2)[C@H](O)[C@@H](O)[C@@H]1O` [Z-ASTRINGIN], the IC50 worked out at 2.5 µM in assay [1] and 29 µM in assay [2].
For the compound `OC[C@H]1O[C@@H](Oc2cc(O)cc(/C=C\c3ccc(O)cc3)c2)[C@H](O)[C@@H](O)[C@@H]1O` [Z-PICEID], the IC50 is 16.8 µM in assay [1] and 142 µM in assay [2].
As for `OC[C@H]1O[C@@H](Oc2ccc(/C=C\c3cc(O)cc(O)c3)cc2O)[C@H](O)[C@@H](O)[C@@H]1O` [Z-RESVERATROLOSIDE], the IC50 was 150 µM in assay [1] and greater than 1000 µM in assay [2].

What is called IC50 is the concentration at which inhibition is half-maximal.
